Assay results as given in patent publication US20190070174A1, “METHODS OF TREATING NEURODEGENERATIVE DISEASES” (priority 2016, published 2019).

How the values were obtained:
ATXN3Q55 = assay: Native PAGE analysis at the end of the ThT assay; assay type: biochemical, human
[1] = test system: high molecular weight (HMW) ATXN3 species; assay: ATXN3 immunoblotting of protein lysates from fly heads; assay type: in vivo, Drosophila
Hsp40 = assay: Subchronic treatment of Q84 mice, Western blot of brainstem soluble fractions; assay type: in vivo, mouse
Experimental: (§1) YACMJD84.2 transgenic mice were housed in cages with a maximum number of five animals and maintained in a standard 12-hour light/dark cycle with food and water ad libitum. Genotyping was performed using DNA isolated from tail biopsy at the time of weaning, and genotypes of all studied mice were confirmed using DNA extracted from tails collected post-mortem. […] Five hours after the final injection, mice were anesthetized with ketamine/xylazine and perfused transcardially with phosphate buffered saline (PBS) (for RNA and protein studies), and brains were immediately placed on dry ice and stored at −80° C.
(§2) Protein lysates from cell cultures, mouse brain slices or mouse brains were obtained by lysis in RIPA buffer containing protease inhibitors (Complete, Roche Diagnostics), followed by sonication and centrifugation. The supernatants (soluble protein fractions) were collected, total protein concentration was determined using the BCA method (Pierce) and then stored at −80° C. […] Pellets corresponding to insoluble protein fractions were resuspended in 100 μL of Laemmli buffer 2× and boiled for 10 min. Insoluble proteins were then quantified, and 100 μg were loaded in a filter trap assay apparatus and transferred to a nitrocellulose membrane (0.45 μm pore) that was incubated overnight with rabbit anti-MJD antibody (1:5000) at 4° C. Bound primary antibodies were visualized by incubation with a peroxidase-conjugated anti-mouse or anti-rabbit secondary antibody (1:10000; Jackson Immuno Research Laboratories) followed by treatment with the ECL-plus reagent (Western Lighting, PerkinElmer) and exposure to autoradiography films. Band intensity was quantified by densitometry using ImageJ.

Hsp90a = assay: as above; assay type: in vivo, mouse
Experimental: as §1, §2

Hsf1 = assay: as above; assay type: in vivo, mouse
Experimental: as §1, §2

Hsp70 = assay: as above; assay type: in vivo, mouse
Experimental: as §1, §2

Hsp90β = assay: as above; assay type: in vivo, mouse
Experimental: as §1, §2

Rad23a = assay: as above; assay type: in vivo, mouse; settings: Q84 mice vs vehicle
Experimental: as §1, §2

Rad23b = assay: as above; assay type: in vivo, mouse; settings: Q84 mice vs vehicle
Experimental: as §1, §2

insoluble ATXN3 = assay: Subchronic treatment of Q84 mice, filter trap analysis of insoluble fractions; assay type: in vivo, human; settings: brainstem insoluble fractions
Experimental: as §1
as §2, with “Bound primary antibodies were visualized by incubation with a peroxidase-conjugated anti-mouse or anti-rabbit secondary antibody (1:10000; Jackson Immuno Research Laboratories) followed by treatment with the ECL-plus reagent (Western Lighting, PerkinElmer) and exposure to autoradiography films.” left out

mouse Atxn3 transcripts = assay: Subchronic treatment of Q84 mice, quantitative RT-PCR; assay type: in vivo; settings: brainstem, 15 mg/kg IP daily for 10 days
Experimental: as §1
(§3) Reverse transcription of 1.5 μg of total RNA per sample was performed using the iScript cDNA synthesis kit (Bio-RAD). Human ATXN3 and mouse Atxn3, Drd2, 5HT1A, 5HT2A and Gapdh (housekeeping) transcript levels were accessed by quantitative real-time PCR. Relative gene expression was determined using the ΔΔCT method, normalizing for Gapdh mRNA levels.

human ATXN3 transcripts = assay: as above; assay type: in vivo; settings: brainstem, 15 mg/kg IP daily for 10 days
Experimental: as §1, §3

ATXN3 = assay: Subchronic treatment of Q84 mice, anti-ATXN3 immunofluorescence of ventral pons; assay type: in vivo, human
Experimental: as §1
Brains from mice perfused with 4% PFA were post-fixed overnight at 4° C. in the same fixative, immersed in 30% sucrose/PBS, and sectioned on a sledge microtome (SM200R Leica Biosystems). […] Neuronal nuclear ATXN3 was quantified using ImageJ by quantifying ATXN3 fluorescence in DAPI and NeuN double-positive nuclei. Corrected total cell fluorescence (CTCF) was obtained by measuring ATXN3 fluorescence in 15 nuclei/image field/mouse and normalizing for nuclei area using the equation CTCF=fluorescence intensity−(nucleus area×mean fluorescence of background readings). ATXN3 positive puncta were quantified using ImageJ by assessing particle fluorescence (applying the triangle threshold) in the same image fields described above.

Question: What does the source list for `O=C1CCc2ccc(OCCCCN3CCN(c4cccc(Cl)c4Cl)CC3)cc2N1` [aripiprazole]?
Answer: HMW or other species of ATXN3Q55 (ATXN3Q55): no differences; HMW ATXN3 species, of levels in vehicle-treated flies ([1]; day 12, 50 μM): 0.73; HMW ATXN3 species, of levels in vehicle-treated flies ([1]; day 15, 50 μM): 0.41; HMW ATXN3 species, of levels in vehicle-treated flies ([1]; day 19, 50 μM): 0.53; levels of Hsp40 (Hsp40): No differences; levels of Hsp90a compared with vehicle-treated mice (Hsp90a): 79%; Heat shock transcription factor (Hsf1) level (Hsf1): increased; levels of Hsp70 compared with vehicle-treated mice (Hsp70): 62%; levels of Hsp90β compared with vehicle-treated mice (Hsp90β): 22%; levels of Rad23a (Rad23a): trend toward decreased levels; levels of Rad23b (Rad23b): trend toward decreased levels; insoluble ATXN3 vs vehicle (insoluble ATXN3): no differences; mouse Atxn3 transcript levels vs vehicle-treated mice (mouse Atxn3 transcripts): similar; human ATXN3 transcript levels vs vehicle-treated mice (human ATXN3 transcripts): similar; ATXN3 nuclear levels vs vehicle (ATXN3; neuronal nuclei of ventral pons): no differences; total ATXN3 fluorescence vs control mice (ATXN3; pons): non-significant trend towards a decrease
